Publication PMC2248166, “Quantitative peptide binding motifs for 19 human and mouse MHC class I molecules derived using positional scanning combinatorial peptide libraries” (Immunome Research, 2008)
Where a SMILES comes first, the peptide text is derived from it.

Target: HLA A*3001 (Homo sapiens, UniProt P04439, D140H/D185E/E176W/F33S/G80R/H175R/K168Q/R138E/R41S)
Assay: biochemical
Format: binding

Sequence of HLA A*3001 (P04439 25-365 limits assumed, stated change not applied): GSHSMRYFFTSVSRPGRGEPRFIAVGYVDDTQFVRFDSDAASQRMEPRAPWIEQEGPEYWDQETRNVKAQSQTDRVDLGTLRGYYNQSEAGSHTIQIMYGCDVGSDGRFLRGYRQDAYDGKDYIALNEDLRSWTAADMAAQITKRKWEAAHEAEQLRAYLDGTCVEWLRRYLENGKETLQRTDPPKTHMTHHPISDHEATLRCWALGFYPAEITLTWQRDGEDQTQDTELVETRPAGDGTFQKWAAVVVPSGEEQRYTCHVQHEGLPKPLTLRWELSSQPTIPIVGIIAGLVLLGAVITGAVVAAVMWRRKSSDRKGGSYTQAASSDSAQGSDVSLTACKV

Compound | IC50 [nM]
CC[C@H](C)[C@H](NC(=O)[C@H](Cc1ccc(O)cc1)NC(=O)[C@@H](NC(=O)[C@H](CCCCN)NC(=O)[C@H](CCCCN)NC(=O)[C@H](Cc1ccccc1)NC(=O)[C@@H](N)CCCNC(=N)N)C(C)C)C(=O)N[C@@H](CC(C)C)C(=O)N[C@H](C(=O)O)C(C)C [3102.0055] (H-RFKKVYILV-OH) | 13
CC[C@H](C)[C@H](NC(=O)[C@H](CCCNC(=N)N)NC(=O)[C@H](CC(N)=O)NC(=O)[C@@H](NC(=O)[C@H](CCC(=O)O)NC(=O)[C@H](CCCCN)NC(=O)[C@@H](NC(=O)[C@@H](N)CCCCN)[C@@H](C)O)[C@@H](C)O)C(=O)N[C@@H](Cc1ccc(O)cc1)C(=O)O [3102.0056] (H-KTKETNRIY-OH) | 11
CC[C@H](C)[C@H](NC(=O)[C@H](CCCNC(=N)N)NC(=O)CNC(=O)[C@@H](N)CCCCN)C(=O)N[C@@H](CO)C(=O)N[C@@H](Cc1ccc(O)cc1)C(=O)N[C@@H](Cc1ccc(O)cc1)C(=O)N[C@@H](CCC(=O)O)C(=O)N[C@@H](CCSC)C(=O)O [3102.0058] (H-KGRISYYEM-OH) | 14
CSCC[C@H](NC(=O)[C@H](CC(N)=O)NC(=O)[C@H](CCCNC(=N)N)NC(=O)[C@@H](NC(=O)[C@@H](N)CCCNC(=N)N)[C@@H](C)O)C(=O)N[C@@H](Cc1ccccc1)C(=O)N[C@@H](CCCNC(=N)N)C(=O)N[C@@H](CCCCN)C(=O)N[C@@H](CCCCN)C(=O)O [3102.0060] (H-RTRNMFRKK-OH) | 0.089
CC[C@H](C)[C@H](NC(=O)[C@H](C)NC(=O)[C@H](CO)NC(=O)[C@@H](NC(=O)[C@H](CO)NC(=O)[C@@H](NC(=O)[C@@H](N)CCCNC(=N)N)C(C)C)C(C)C)C(=O)N[C@@H](CC(C)C)C(=O)N[C@@H](CC(C)C)C(=O)O [3102.0061] (H-RVSVSAILL-OH) | 15
CSCC[C@H](NC(=O)[C@H](CC(C)C)NC(=O)[C@@H](NC(=O)[C@@H](N)Cc1c[nH]cn1)C(C)C)C(=O)N[C@@H](Cc1c[nH]cn1)C(=O)N[C@@H](CO)C(=O)N1CCC[C@H]1C(=O)N[C@@H](CC(C)C)C(=O)N[C@H](C(=O)O)C(C)C [3102.0062] (H-HVLMHSPLV-OH) | 30
CC[C@H](C)[C@H](N)C(=O)N[C@@H](CO)C(=O)N[C@@H](CCCNC(=N)N)C(=O)N[C@@H](CO)C(=O)N[C@@H](CCCNC(=N)N)C(=O)N[C@@H](CCCNC(=N)N)C(=O)N[C@@H](CC(C)C)C(=O)N[C@@H](Cc1ccccc1)C(=O)N[C@@H](C)C(=O)O [3102.0065] (H-ISRSRRLFA-OH) | 2.2
CC[C@H](C)[C@H](NC(=O)[C@@H](NC(=O)[C@@H](NC(=O)[C@H](CC(=O)O)NC(=O)[C@H](CCCCN)NC(=O)[C@@H](NC(=O)[C@H](C)N)C(C)C)C(C)C)[C@@H](C)O)C(=O)N[C@H](C(=O)N[C@@H](CCCCN)C(=O)O)[C@@H](C)O [3102.0067] (H-AVKDVTITK-OH) | 2.2
CC(C)[C@H](NC(=O)[C@@H](N)Cc1c[nH]cn1)C(=O)N[C@@H](Cc1ccc(O)cc1)C(=O)N[C@@H](CC(=O)O)C(=O)N[C@@H](Cc1ccccc1)C(=O)N[C@@H](CCC(=O)O)C(=O)N1CCC[C@H]1C(=O)N[C@@H](Cc1ccc(O)cc1)C(=O)N[C@@H](Cc1ccc(O)cc1)C(=O)O [3102.0068] (H-HVYDFEPYY-OH) | 27
CC[C@H](C)[C@H](NC(=O)[C@H](CCCNC(=N)N)NC(=O)[C@H](CCC(N)=O)NC(=O)[C@@H](N)CCSC)C(=O)N[C@H](C(=O)N[C@@H](CO)C(=O)N[C@@H](CC(C)C)C(=O)N[C@@H](CO)C(=O)N[C@H](C(=O)O)C(C)C)[C@@H](C)CC [3102.0069] (H-MQRIISLSV-OH) | 8.8
CC(C)[C@H](NC(=O)[C@H](CO)NC(=O)[C@@H]1CCCN1C(=O)[C@H](CO)NC(=O)[C@H](C)NC(=O)[C@H](Cc1ccc(O)cc1)NC(=O)[C@H](Cc1ccccc1)NC(=O)CNC(=O)[C@@H](N)CCCCN)C(=O)O [3102.0070] (H-KGFYASPSV-OH) | 2.7
CC(C)[C@H](NC(=O)[C@H](CCC(N)=O)NC(=O)[C@@H](NC(=O)[C@H](CCCNC(=N)N)NC(=O)[C@H](CCC(=O)O)NC(=O)[C@@H](NC(=O)[C@H](CCCNC(=N)N)NC(=O)[C@H](CO)NC(=O)[C@@H](N)CCCCN)C(C)C)C(C)C)C(=O)O [3102.0075] (H-KSRVERVQV-OH) | 11
CC[C@H](C)[C@H](NC(=O)[C@H](CC(N)=O)NC(=O)[C@@H](NC(=O)[C@@H](NC(=O)[C@H](Cc1ccccc1)NC(=O)[C@@H](NC(=O)[C@H](C)N)[C@@H](C)O)[C@@H](C)O)C(C)C)C(=O)N[C@@H](Cc1ccccc1)C(=O)N[C@@H](CCCCN)C(=O)O [3102.0081] (H-ATFTVNIFK-OH) | 3.1
CC(C)C[C@H](NC(=O)[C@H](CCCNC(=N)N)NC(=O)[C@@H](NC(=O)[C@@H](N)CCCNC(=N)N)C(C)C)C(=O)N[C@@H](CCCNC(=N)N)C(=O)N[C@@H](Cc1ccc(O)cc1)C(=O)N[C@@H](CCCNC(=N)N)C(=O)N[C@@H](CO)C(=O)NCC(=O)O [3102.0082] (H-RVRLRYRSG-OH) | 13
CC[C@H](C)[C@H](NC(=O)[C@@H](N)CCCNC(=N)N)C(=O)N[C@@H](CCCNC(=N)N)C(=O)N[C@@H](Cc1ccccc1)C(=O)N[C@@H](Cc1ccccc1)C(=O)N[C@@H](Cc1ccc(O)cc1)C(=O)N[C@@H](CCCNC(=N)N)C(=O)N[C@@H](CCCCN)C(=O)N[C@@H](CCCCN)C(=O)O [3102.0083] (H-RIRFFYRKK-OH) | 0.17
CC[C@H](C)[C@H](NC(=O)[C@H](CCSC)NC(=O)[C@H](CC(C)C)NC(=O)[C@@H]1CCCN1C(=O)[C@H](CCCNC(=N)N)NC(=O)[C@H](Cc1ccccc1)NC(=O)[C@@H](N)CCCCN)C(=O)N[C@@H](Cc1ccccc1)C(=O)N[C@@H](CCSC)C(=O)O [3102.0084] (H-KFRPLMIFM-OH) | 1.8
CC[C@H](C)[C@H](NC(=O)[C@@H](NC(=O)[C@H](Cc1c[nH]c2ccccc12)NC(=O)[C@H](Cc1ccccc1)NC(=O)CNC(=O)[C@H](CO)NC(=O)[C@H](CCCNC(=N)N)NC(=O)[C@H](Cc1ccc(O)cc1)NC(=O)[C@@H](N)CCCNC(=N)N)[C@@H](C)CC)C(=O)O [3102.0085] (H-RYRSGFWII-OH) | 8.7
CC[C@H](C)[C@H](NC(=O)[C@H](Cc1ccccc1)NC(=O)[C@H](Cc1ccccc1)NC(=O)[C@H](CO)NC(=O)[C@H](CC(N)=O)NC(=O)[C@H](CO)NC(=O)[C@H](CC(C)C)NC(=O)[C@@H](N)Cc1c[nH]cn1)C(=O)N[C@@H](CCCCN)C(=O)O [3102.0086] (H-HLSNSFFIK-OH) | 17
CC[C@H](C)[C@H](NC(=O)[C@@H](NC(=O)[C@H](CC(N)=O)NC(=O)[C@H](CCCCN)NC(=O)[C@H](CO)NC(=O)[C@@H](N)CCCNC(=N)N)[C@@H](C)O)C(=O)N[C@H](C(=O)N[C@H](C(=O)N[C@@H](C)C(=O)O)[C@@H](C)CC)[C@@H](C)CC [3102.0089] (H-RSKNTIIIA-OH) | 0.16
CSCC[C@H](N)C(=O)N[C@@H](CCC(N)=O)C(=O)N[C@@H](CCCCN)C(=O)N[C@@H](CS)C(=O)N[C@@H](Cc1ccc(O)cc1)C(=O)N[C@@H](Cc1ccccc1)C(=O)N[C@@H](CO)C(=O)N[C@@H](Cc1ccc(O)cc1)C(=O)N[C@@H](CCCCN)C(=O)O [3102.0090] (H-MQKCYFSYK-OH) | 0.53
CC[C@H](C)[C@H](NC(=O)[C@@H](N)CCCCN)C(=O)N[C@@H](CCCCN)C(=O)N[C@@H](CO)C(=O)N[C@@H](CO)C(=O)N[C@@H](CC(N)=O)C(=O)N[C@@H](CO)C(=O)N[C@@H](CO)C(=O)N[C@@H](CCCCN)C(=O)O [3102.0091] (H-KIKSSNSSK-OH) | 15
CC[C@H](C)[C@H](NC(=O)[C@H](CC(N)=O)NC(=O)CNC(=O)[C@H](CC(N)=O)NC(=O)[C@H](CCCCN)NC(=O)[C@@H](NC(=O)[C@H](C)N)[C@@H](C)O)C(=O)N[C@@H](Cc1ccccc1)C(=O)N[C@H](C(=O)O)C(C)C [3102.0093] (H-ATKNGNIFV-OH) | 3.9
CC[C@H](C)[C@H](NC(=O)[C@H](CC(C)C)NC(=O)[C@H](C)NC(=O)[C@@H](NC(=O)[C@H](Cc1c[nH]cn1)NC(=O)[C@@H](NC(=O)[C@@H](N)CCCNC(=N)N)[C@@H](C)O)[C@@H](C)O)C(=O)N[C@@H](Cc1ccccc1)C(=O)N[C@@H](CC(C)C)C(=O)O [3102.0094] (H-RTHTALIFL-OH) | 0.7
CC[C@H](C)[C@H](NC(=O)[C@@H](NC(=O)[C@H](CCCCN)NC(=O)[C@H](CO)NC(=O)[C@H](C)N)[C@@H](C)O)C(=O)N[C@@H](CC(N)=O)C(=O)N[C@@H](C)C(=O)N[C@@H](CC(C)C)C(=O)N[C@H](C(=O)O)C(C)C [3102.0095] (H-ASKTINALV-OH) | 0.18
CC[C@H](C)[C@H](NC(=O)[C@H](CCC(N)=O)NC(=O)[C@H](Cc1c[nH]cn1)NC(=O)[C@H](CO)NC(=O)[C@H](CCC(=O)O)NC(=O)[C@H](CCCCN)NC(=O)[C@@H](NC(=O)[C@@H](N)C(C)C)[C@@H](C)O)C(=O)N[C@@H](CCCCN)C(=O)O [3102.0096] (H-VTKESHQIK-OH) | 1.5
CC[C@H](C)[C@H](NC(=O)[C@@H](N)CCCCN)C(=O)N[C@@H](CCCCN)C(=O)N[C@@H](C)C(=O)NCC(=O)N1CCC[C@H]1C(=O)N[C@@H](CCCNC(=N)N)C(=O)N[C@@H](Cc1ccc(O)cc1)C(=O)N[C@H](C(=O)O)C(C)C [3102.0097] (H-KIKAGPRYV-OH) | 6.9
CC[C@H](C)[C@H](N)C(=O)N[C@@H](CO)C(=O)N[C@@H](CCCNC(=N)N)C(=O)N[C@@H](Cc1ccccc1)C(=O)N[C@@H](C)C(=O)N[C@@H](CC(N)=O)C(=O)N[C@@H](CC(C)C)C(=O)N[C@H](C(=O)N[C@@H](CCCCN)C(=O)O)[C@@H](C)CC [3102.0098] (H-ISRFANLIK-OH) | 13
CC[C@H](C)[C@H](NC(=O)[C@H](Cc1c[nH]cn1)NC(=O)[C@@H](NC(=O)[C@H](CC(N)=O)NC(=O)[C@H](CCCCN)NC(=O)[C@@H](NC(=O)[C@@H](N)CCCCN)C(C)C)C(C)C)C(=O)NCC(=O)NCC(=O)O [3102.0099] (H-KVKNVHIGG-OH) | 0.34
CC[C@H](C)[C@H](NC(=O)[C@H](CCSC)NC(=O)[C@H](Cc1ccccc1)NC(=O)[C@H](CC(=O)O)NC(=O)[C@H](CC(N)=O)NC(=O)[C@H](CCCCN)NC(=O)[C@@H](NC(=O)[C@@H](N)Cc1c[nH]cn1)[C@@H](C)CC)C(=O)N[C@@H](CCCCN)C(=O)O [3102.0101] (H-HIKNDFMIK-OH) | 1.6
